Data set [1] has as its system Candida albicans. The experiment in a line: Antifungal activity against Candida albicans ATCC 14503 at 64 ug by broth microdilution method. The class given is functional, organism-based. For orientation: Dilution methods test growth across graded concentrations, often in twofold steps.
Data set [2] concerns Pichia kudriavzevii. As to the kind of experiment: Antifungal activity against fluconazole-resistant Candida krusei at 64 ug by broth microdilution method. The class given is functional, organism-based.
The subject of data set [3] is Cryptococcus gattii. As to the kind of experiment: Antifungal activity against Cryptococcus neoformans var. gatti at 64 ug by broth microdilution method. The class given is functional, organism-based. To be noted: Cryptococcus bacillisporus.
The subject of data set [4] is Nakaseomyces glabratus. As to the kind of experiment: Antifungal activity against Candida glabrata at 64 ug by broth microdilution method. Format: functional, organism-based.
The test system of data set [5] is Cryptococcus neoformans. The experiment in a line: Antifungal activity against Cryptococcus neoformans var. grubii at 64 ug by broth microdilution method. The class given is functional, organism-based.
Data set [6] concerns Candida albicans. The experiment in a line: Antifungal activity against fluconazole-resistant Candida albicans UCD-FRI at 64 ug by broth microdilution method. Format: functional, organism-based.
Data set [7] deals with Candida albicans. The experiment in a line: Antifungal activity against fluconazole-resistant Candida albicans 96-489 at 64 ug by broth microdilution method. The class given is functional, organism-based.
Data set [8] has as its system HCT-116. As to the kind of experiment: Cytotoxicity against human HCT116 cells. The class given is cell-based.
Data set [9] relates to Candida albicans. The experiment in a line: Antifungal activity against fluconazole-resistant Candida albicans UCD-FRI by broth microdilution method. Format: functional, organism-based.
Data set [10] deals with Nakaseomyces glabratus. The experiment in a line: Antifungal activity against Candida glabrata by broth microdilution method. Format: functional.
Data set [11] concerns Candida albicans. As to the kind of experiment: Antifungal activity against fluconazole-resistant Candida albicans 96-489 by broth microdilution method. The class given is functional, organism-based.
Data set [12] relates to Cryptococcus gattii. The experiment in a line: Antifungal activity against Cryptococcus neoformans var. gatti by broth microdilution method. Format: functional, organism-based. The following applies: Cryptococcus bacillisporus.
Data set [13] relates to Cryptococcus neoformans. As to the kind of experiment: Antifungal activity against Cryptococcus neoformans var. grubii by broth microdilution method. The class given is functional, organism-based.
The subject of data set [14] is Candida albicans. As to the kind of experiment: Antifungal activity against Candida albicans ATCC 14503 by broth microdilution method. The class given is functional, organism-based.
The subject of data set [15] is Pichia kudriavzevii. The experiment in a line: Antifungal activity against fluconazole-resistant Candida krusei by broth microdilution method. Format: functional, organism-based.

The source made the active and inactive calls. The calls are words filed in the database; no cut-off is given here.

In the case of `COC(=O)[C@@H]1N=C1/C=C\CCCCCCCCCCCC(C)(C)C`, the result in data set [1], in [2], in data set [3], in [4], in data set [5] and in [6] was inactive. In addition, in data set [7], the outcome was inactive.

Consider `COC(=O)[C@H]1N=C1/C=C\CCCCCCCCC/C=C(/Cl)Br`, for which the result in [1], in data set [2], in [3], in data set [4], in data set [5] and in data set [6] was inactive. In data set [7], the outcome was inactive. Besides, the outcome in data set [8] was Active.

In the case of `CCCCC/C=C\C1=N[C@H]1C(=O)OC`, the outcome in data set [9] was inactive.

`CCCCCCCCCCCCC/C=C/[C@@H](O)[C@@H](N)CO` [SPHINGOSINE] yielded an Activity in [10] of 30 µg/mL.

Regarding `COC(=O)[C@H]1N=C1/C=C\CCCCCCCCCC=C(Br)Br`, the result in [1], in data set [2], in data set [3], in [4], in data set [5] and in data set [6] was inactive. Further, in [7], the outcome was inactive. Also, the outcome in [8] was Active.

As to `COC(=O)[C@H]1N=C1/C=C/CCCCCCCCC/C=C(/Cl)Br`, the outcome in [1], in [2], in [3], in data set [4], in [5] and in data set [6] was inactive. Moreover, the result in data set [7] was inactive. In data set [8], the result was Active.

As to `CCCCCCCCCCCCCC#CC1=N[C@H]1C(=O)OC`, the result in data set [9], in data set [10], in data set [11], in data set [12], in [13] and in [14] was Active. In data set [15], the outcome was Active.

Turning to `CCCCCCCCCCCCCCCC1=N[C@H]1C(=O)OC`, the outcome in data set [1], in data set [2], in data set [3], in data set [4], in data set [5] and in [6] was inactive. In addition, the result in data set [7] was inactive.

As for `CCCCCCCCCC/C=C\C1=N[C@H]1C(=O)OC`, the outcome in data set [9], in data set [10], in [11], in data set [12], in [13] and in [14] was Active. The result in [15] was Active.

As for `COC(=O)[C@H]1N=C1/C=C/CCCCCCCCCC=C(Br)Br`, the outcome in data set [1], in data set [2], in data set [3], in data set [4], in [5] and in [6] was inactive. Besides, in data set [7], the result was inactive. Besides, the outcome in [8] was Active.

`COC(=O)[C@H]1N=C1/C=C/CCCCCCCCCC=C(Cl)Cl`: the outcome in data set [1], in [2], in data set [3], in data set [4], in [5] and in data set [6] was inactive. For the same compound, the outcome in data set [7] was inactive. The result in data set [8] was Active.

The values above are taken from ChEMBL document CHEMBL1155406, “Synthesis and chain-dependent antifungal activity of long-chain 2H-azirine-carboxylate esters related to dysidazirine” (Bioorg Med Chem Lett, 2010).
